Measurements from patent US20100311714A1, “1H-IMIDAZO[4,5-c]QUINOLINONE COMPOUNDS” (priority 2009, published 2010).
Where two headings read alike, the source gives them in different places.

Target: T1, PI3K alfa (Homo sapiens, UniProt P42336)
T1 construct: His tag (C); made in house; host or cells: baculovirus BV1075; Tn5 (Trichoplusia ni) or TiniPro insect cells
Test: PI3K alpha kinase assay (Kinase-Glo luminescence)
Format: biochemical
Procedure: In a more preferred assay, the kinase reaction is performed in a final volume of 10 μL per well of a low volume non binding CORNING, 384 well black plate (Cat. No. #3676). The final concentrations of ATP and phosphatidyl inositol (PI) in the assay are 1 μM and 10 μg/mL respectively. The reaction is started by the addition of ATP.
The components of the assay are added per well as follows:
50 nL test compounds in 90% DMSO per well, in columns 1-20, 8 concentrations (⅓ and 1/3.33 serial dilution step) in single. • Low control: […] of 90% DMSO in half the wells of columns 23-24 (0.45% in final). • High control: 50 nL of reference compound (e.g. compound of Example 7 in WO 2006/122806) in the other half of columns 23-24 (2.5 μM in final). • Standard: 50 nL of reference compound as just mentioned diluted as the test compounds in columns 21-22 • 20 mL ‘buffer’ are prepared per assay: • 200 μL of 1M TRIS HCl pH7.5 (10 mM in final) • 60 μL of 1M MgCl2 (3 mM in final) • 500 μL of 2M NaCl (50 mM in final) • 100 μL of 10% CHAPS (0.05% in final) • 200 μL of 100 mM DTT (1 mM in final) • 18.94 mL of nanopure water • 10 mL ‘PI’ are prepared per assay: • 200 μL of 1 mg/ml L-alpha-Phosphatidylinositol (Liver Bovine, Avanti Polar Lipids Cat. No. 840042C MW=909.12) prepared in 3% OctylGlucoside (10 μg/ml in final) • 9.8 mL of ‘buffer’ • 10 mL ‘ATP’ are prepared per assay: • 6.7 μL of 3 mM stock of ATP giving a final concentration of 1 μM per well • 10 mL of ‘buffer’ • 2.5 mL of each PI3K construct are prepared per assay in ‘PI’ with the following final concentration: • 10 nM PI3K alfa EMV B1075 • 25 nM beta EMV BV949 • 10 nM delta EMV BV1060 • 150 nM gamma EMV BV950 • 5 μL of ‘PI/PI3K’ are added per well. • 5 μl ‘ATP’ are added per well to start the reaction. • The plates are then incubated at room temperature for 60 minutes (alfa, beta, delta) or 120 minutes (gamma). • The reaction is terminated by the addition of 10 μL Kinase-Glo (Promega Cat. No. #6714). • The assay plates are read after 10 minutes in Synergy 2 reader (BioTek, Vermont USA) with an integration time of 100 milliseconds and sensitivity set to 191. • Output: The High control is around 60′000 counts and the Low control is 30′000 or lower • This luminescence assay gives a useful Z′ ratio between 0.4 and 0.7
Two different constructs, BV 1052 and BV 1075, are used to generate the PI3 Kinase α proteins for compound screening.
PI3K alpha is purified in three chromatographic steps: immobilized metal affinity chromatography on a Ni Sepharose resin (GE Healthcare, belonging to General Electric Company, Fairfield, Conn., USA), gel filtration utilizing a Superdex 200 26/60 column (GE Healthcare), and finally a cation exchange step on a SP-XL column (GE Healthcare). All buffers are chilled to 4° C. and lysis is performed chilled on ice. Column fractionation is performed rapidly at room temperature.
IC50 is determined by a four parameter curve fitting routine that comes along with “excel fit”. A 4 Parameter logistic equation is used to calculate IC50 values (IDBS XLfit) of the percentage inhibition of each compound at 8 concentrations (usually 10, 3.0, 1.0, 0.3, 0.1, 0.030, 0.010 and 0.003 μM). Alternatively, IC50 values are calculated using idbsXLfit model 204, which is a 4 parameter logistic model.

T1 sequence (P42336 with tags, fused parts or gaps limits assumed): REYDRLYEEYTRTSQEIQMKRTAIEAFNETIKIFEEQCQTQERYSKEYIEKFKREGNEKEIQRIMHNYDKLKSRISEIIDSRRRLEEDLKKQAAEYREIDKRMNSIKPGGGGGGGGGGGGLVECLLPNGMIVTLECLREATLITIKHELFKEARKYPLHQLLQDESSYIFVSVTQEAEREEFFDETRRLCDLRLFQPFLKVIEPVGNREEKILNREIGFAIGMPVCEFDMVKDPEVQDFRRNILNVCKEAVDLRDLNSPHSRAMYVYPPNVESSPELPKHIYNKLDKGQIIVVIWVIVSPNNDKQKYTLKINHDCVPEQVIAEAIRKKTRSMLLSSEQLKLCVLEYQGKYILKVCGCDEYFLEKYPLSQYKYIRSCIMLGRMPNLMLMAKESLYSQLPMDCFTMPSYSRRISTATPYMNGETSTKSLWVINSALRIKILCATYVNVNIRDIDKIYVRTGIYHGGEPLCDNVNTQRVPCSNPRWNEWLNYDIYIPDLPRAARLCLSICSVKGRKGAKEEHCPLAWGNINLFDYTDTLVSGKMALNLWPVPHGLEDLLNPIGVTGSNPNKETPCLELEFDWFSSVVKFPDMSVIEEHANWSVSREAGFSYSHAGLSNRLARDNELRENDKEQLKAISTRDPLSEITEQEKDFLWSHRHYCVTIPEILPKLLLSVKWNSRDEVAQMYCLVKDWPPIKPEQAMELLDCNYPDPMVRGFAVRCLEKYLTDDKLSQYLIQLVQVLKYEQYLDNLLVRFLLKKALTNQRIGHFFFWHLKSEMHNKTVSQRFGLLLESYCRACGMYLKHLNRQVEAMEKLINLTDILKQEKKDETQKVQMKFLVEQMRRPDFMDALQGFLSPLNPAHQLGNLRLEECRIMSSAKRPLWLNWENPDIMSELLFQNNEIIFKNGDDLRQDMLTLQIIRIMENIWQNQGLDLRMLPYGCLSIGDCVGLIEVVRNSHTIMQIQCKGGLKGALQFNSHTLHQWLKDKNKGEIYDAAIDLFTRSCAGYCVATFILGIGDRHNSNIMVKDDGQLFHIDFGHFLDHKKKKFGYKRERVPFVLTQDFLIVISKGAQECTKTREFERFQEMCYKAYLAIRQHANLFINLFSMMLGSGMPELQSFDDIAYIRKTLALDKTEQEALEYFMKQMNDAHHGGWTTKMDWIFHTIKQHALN

IC50 (read-out: PI3Kalfa/IC50)	IC50 (read-out: EPK_PI3Kalfa/IC50)	Compound
26 nM	–	COc1ccc(-c2ccc3ncc4c(c3c2)n(-c2cccnc2C)c(=O)n4C)cn1 [Example 2.12, 8-(6-Methoxy-pyridin-3-yl)-3-methyl-1-(2-methyl-pyridin-3-yl)-1,3-dihydro-imidazo[4,5-c]quinolin-2-one]
12 nM	–	COc1ccc(-c2ccc3ncc4c(c3c2)n(-c2cccnc2C)c(=O)n4C)cc1OC [Example 2.9, 8-(3,4-Dimethoxy-phenyl)-3-methyl-1-(2-methyl-pyridin-3-yl)-1,3-dihydro-imidazo[4,5-c]quinolin-2-one]
100 nM	–	Cc1ncccc1-n1c(=O)n(C)c2cnc3ccc(-c4ccc(CO)nc4)cc3c21 [Example 2.6, 8-(6-Hydroxymethyl-pyridin-3-yl)-3-methyl-1-(2-methyl-pyridin-3-yl)-1,3-dihydro-imidazo[4,5-c]quinolin-2-one]
119 nM	–	CCOc1ncc(-c2ccc3ncc4c(c3c2)n(-c2cccnc2C)c(=O)n4C)cn1 [Example 2.5, 8-(2-Ethoxy-pyrimidin-5-yl)-3-methyl-1-(2-methyl-pyridin-3-yl)-1,3-dihydro-imidazo[4,5-c]quinolin-2-one]
14 nM	–	CNc1ccc(-c2ccc3ncc4c(c3c2)n(-c2cccnc2C)c(=O)n4C)cn1 [Example 2.13, 3-Methyl-8-(6-methylamino-pyridin-3-yl)-1-(2-methyl-pyridin-3-yl)-1,3-dihydro-imidazo[4,5-c]quinolin-2-one]
21 nM	–	CCOc1ccc(-c2ccc3ncc4c(c3c2)n(-c2cccnc2F)c(=O)n4C)cn1 [Example 6.1, 8-(6-Ethoxy-pyridin-3-yl)-1-(2-fluoro-pyridin-3-yl)-3-methyl-1,3-dihydro-imidazo[4,5-c]quinolin-2-one]
–	14 nM	CCNc1cc(-c2ccc3ncc4c(c3c2)n(-c2cccnc2C)c(=O)n4C)cnc1CO [Example 2.31, 8-(5-Ethylamino-6-hydroxymethyl-pyridin-3-yl)-3-methyl-1-(2-methyl-pyridin-3-yl)-1,3-dihydro-imidazo[4,5-c]quinolin-2-one]
35 nM	–	Cc1ncccc1-n1c(=O)n(C)c2cnc3ccc(-c4cnc(N(C)C)nc4)cc3c21 [Example 2.15, 8-(2-Dimethylamino-pyrimidin-5-yl)-3-methyl-1-(2-methyl-pyridin-3-yl)-1,3-dihydro-imidazo[4,5-c]quinolin-2-one]

The remaining lines, values behind:

Compound	IC50 (read-out: PI3Kalfa/IC50)	IC50 (read-out: EPK_PI3Kalfa/IC50)
Cc1nc(C(F)(F)F)ccc1-n1c(=O)n(C)c2cnc3ccc(-c4cncc(C(C)(C)O)c4)cc3c21 [Example 33.1, 8-[5-(1-Hydroxy-1-methyl-ethyl)-pyridin-3-yl]-3-methyl-1-(2-methyl-6-trifluoromethyl-pyridin-3-yl)-1,3-dihydro-imidazo[4,5-c]quinolin-2-one]	–	13 nM
CCOc1ccc(-c2ccc3ncc4c(c3c2)n(-c2ccc(N3CCNCC3)nc2OC)c(=O)n4C)cn1 [Example 9.1, 8-(6-Ethoxy-pyridin-3-yl)-1-(2-methoxy-6-piperazin-1-yl-pyridin-3-yl)-3-methyl-1,3-dihydro-imidazo[4,5-c]quinolin-2-one]	58 nM	–
Cn1c(=O)n(-c2cccnc2F)c2c3cc(-c4cnc(N)c(C(F)(F)F)c4)ccc3ncc21 [Example 6.2, 8-(6-Amino-5-trifluoromethyl-pyridin-3-yl)-1-(2-fluoro-pyridin-3-yl)-3-methyl-1,3-dihydro-imidazo[4,5-c]quinolin-2-one]	9 nM	–
CCNc1ncc(-c2ccc3ncc4c(c3c2)n(-c2ccc(C(C)(C)O)nc2C)c(=O)n4C)cn1 [Example 31.7, 8-(2-Ethylamino-pyrimidin-5-yl)-1-[6-(1-hydroxy-1-methyl-ethyl)-2-methyl-pyridin-3-yl]-3-methyl-1,3-dihydro-imidazo[4,5-c]quinolin-2-one]	–	75 nM
COc1ncc(-c2ccc3ncc4c(c3c2)n(-c2ccc(N3CC[C@H](O)C3)nc2C)c(=O)n4C)c(OC)n1 [Example 32.3, 8-(2,4-Dimethoxy-pyrimidin-5-yl)-1-[6-((S)-3-hydroxy-pyrrolidin-1-yl)-2-methyl-pyridin-3-yl]-3-methyl-1,3-dihydro-imidazo[4,5-c]quinolin-2-one]	–	32 nM
CNc1ncc(-c2ccc3ncc4c(c3c2)n(-c2ccc(N3CCC(O)C3)nc2C)c(=O)n4C)cn1 (centres unmarked) [Example 27.2, 1-[6-(3-Hydroxy-pyrrolidin-1-yl)-2-methyl-pyridin-3-yl]-3-methyl-8-(2-methylamino-pyrimidin-5-yl)-1,3-dihydro-imidazo[4,5-c]quinolin-2-one]	–	32 nM
COc1ncc(-c2ccc3ncc4c(c3c2)n(-c2ccc(N3CC(O)C3)nc2C)c(=O)n4C)c(OC)n1 [Example 29.6, 8-(2,4-Dimethoxy-pyrimidin-5-yl)-1-[6-(3-hydroxy-azetidin-1-yl)-2-methyl-pyridin-3-yl]-3-methyl-1,3-dihydro-imidazo[4,5-c]quinolin-2-one]	–	23 nM
CCOc1cc(-c2ccc3ncc4c(c3c2)n(-c2ccc(N3CCC3)nc2C)c(=O)n4C)cnc1COC [Example 23.5, 1-(6-Azetidin-1-yl-2-methyl-pyridin-3-yl)-8-(5-ethoxy-6-methoxymethyl-pyridin-3-yl)-3-methyl-1,3-dihydro-imidazo[4,5-c]quinolin-2-one]	–	21 nM
COc1ccc(-c2ccc3ncc4c(c3c2)n(-c2cnccc2C)c(=O)n4C)cn1 [Example 4.3, 8-(6-Methoxy-pyridin-3-yl)-3-methyl-1-(4-methyl-pyridin-3-yl)-1,3-dihydro-imidazo[4,5-c]quinolin-2-one]	73 nM	–
COc1nc(N2CCNCC2)ccc1-n1c(=O)n(C)c2cnc3ccc(-c4cnc(N)c(C(F)(F)F)c4)cc3c21 [Example 9.2, 8-(6-Amino-5-trifluoromethyl-pyridin-3-yl)-1-(2-methoxy-6-piperazin-1-yl-pyridin-3-yl)-3-methyl-1,3-dihydro-imidazo[4,5-c]quinolin-2-one]	18 nM	–
COc1cc(-c2ccc3ncc4c(c3c2)n(-c2cccnc2C)c(=O)n4C)cnc1C(OC)OC [Example 2.27, 8-(6-Dimethoxymethyl-5-methoxy-pyridin-3-yl)-3-methyl-1-(2-methyl-pyridin-3-yl)-1,3-dihydro-imidazo[4,5-c]quinolin-2-one]	–	80 nM
CNc1ncc(-c2ccc3ncc4c(c3c2)n(-c2ccc(N3CC[C@H](O)C3)nc2C)c(=O)n4C)cc1C(F)(F)F [Example 32.5, 1-[6-((S)-3-Hydroxy-pyrrolidin-1-yl)-2-methyl-pyridin-3-yl]-3-methyl-8-(6-methylamino-5-trifluoromethyl-pyridin-3-yl)-1,3-dihydro-imidazo[4,5-c]quinolin-2-one]	–	9 nM
Cc1cccnc1-n1c(=O)n(C)c2cnc3ccc(-c4ccc(N(C)C)nc4)cc3c21 [Example 3.11, 8-(6-Dimethylamino-pyridin-3-yl)-3-methyl-1-(3-methyl-pyridin-2-yl)-1,3-dihydro-imidazo[4,5-c]quinolin-2-one]	321 nM	–
Cc1nc(N2CCCC2)ccc1-n1c(=O)n(C)c2cnc3ccc(-c4cncc(C(C)(C)O)c4)cc3c21 [Example 25.3, 8-[5-(1-Hydroxy-1-methyl-ethyl)-pyridin-3-yl]-3-methyl-1-(2-methyl-6-pyrrolidin-1-yl-pyridin-3-yl)-1,3-dihydro-imidazo[4,5-c]quinolin-2-one]	–	< 3 nM
CCOc1ccc(-c2ccc3ncc4c(c3c2)n(-c2cnccc2C)c(=O)n4C)cn1 [Example 4.2, 8-(6-Ethoxy-pyridin-3-yl)-3-methyl-1-(4-methyl-pyridin-3-yl)-1,3-dihydro-imidazo[4,5-c]quinolin-2-one]	206 nM	–
